Data published in patent US9359650B2, “Biomass pre-treatment for co-production of high-concentration C5- and C6-carbohydrates and their derivatives” (Wisconsin Alumni Research Foundation, priority 2013, dated 2016).

How the values were obtained:
E. coli MG1655 = assay: E. coli salt and GVL toxicity testing (growth, OD600); format: cell-based; details: E. coli MG1655, optical density after 24 hr of growth, 37° C., MOPS minimal media with 0.5% glucose plus wt % GVL or NaCl; FIGS. 22A/22B
Procedure: The strain used in these experiments was wild type E. coli MG1655 and in all cases was grown at 37° C. The toxicity medium used was based on MOPS minimal media with 0.5% glucose and supplemented with the appropriate wt % of GVL or sodium chloride (Sigma). A single colony of E. coli was picked from LB agar and grown overnight in 5 ml of LB media (glass culture tubes, 20×150 mm, Fisher Scientific) agitated at 250 rpm in an incubator shaker (New Brunswick Scientific). The resulting solution was used to inoculate 2 ml of the toxicity medium to an OD600 of 0.01 in 13×100 mm tubes (Fisher Scientific). The tubes were incubated for 24 hours under the same conditions as described in the main methods and a final OD600 measured using a Biomate 3 spectrophotometer (ThermoFisher).

S. cerevisiae PE2 = assay: S. cerevisiae salt and GVL toxicity testing (growth, OD600); format: cell-based; details: S. cerevisiae PE2, optical density after 40 hr of growth, 30° C., Yeast Nitrogen Base, 0.5% glucose plus wt % GVL or NaCl; FIGS. 22A/22B
Procedure: The strain used in these experiments was S. cerevisiae PE2 and in all cases was grown at 30° C. The toxicity medium used was formulated using 10x Yeast Nitrogen Base without Amino Acids, 0.5% glucose and the appropriate wt % of GVL or sodium chloride (Sigma). A single colony of S. cerevisiae was picked from YPD agar and grown overnight in 5 ml of YPD media (glass culture tubes, 20×150 mm, Fisher Scientific) agitated at 250 rpm in the incubator shaker. The resulting solution was used to inoculate 2 ml of the toxicity medium to an OD600 of 0.01 in 13×100 mm tubes (Fisher Scientific). The tubes were incubated for 40 hours under same conditions and sampled as described above.

| Structure (SMILES) | effect of concentration on microbial growth (optical density) (E. coli MG1655) | effect of concentration on microbial growth (optical density) (S. cerevisiae PE2) |
| --- | --- | --- |
| CC1CCC(=O)O1 (stereo not shown) [GVL, gamma-valerolactone] | can inhibit microbial growth | can inhibit microbial growth |
| [Cl-].[Na+] [NaCl, sodium chloride] | can inhibit microbial growth | can inhibit microbial growth |
